In ChEMBL document CHEMBL1201862, “PubChem BioAssay data set” (2004):
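Protocol summary: plate cells (96-well), add compound at 5 concentrations, incubate 48 h, interpolate endpoints linearly. At the GI50, growth is halved.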 Calls of active or inactive are those of the source. Cut-off read from the data, not from the text of the source: active = GI50 up to about 1.1 µM and inactive = higher.

Assays:
Experiment in all cases: DTP human tumour cell line panel, 48 h
HCC 2998 = test system: HCC 2998
TK-10 = test system: TK-10
SF-539 = test system: SF-539
MOLT-4 = test system: MOLT-4
SF-268 = test system: SF-268
KM12 = test system: KM12
CCRF-CEM = test system: CCRF-CEM
NCI-H23 = test system: NCI-H23
RPMI-8226 = test system: RPMI-8226
HL-60 = test system: HL-60
SR = test system: SR
HOP-62 = test system: HOP-62
UACC-62 = test system: UACC-62
OVCAR-8 = test system: OVCAR-8
Malme-3M = test system: Malme-3M
NCI-H226 = test system: NCI-H226
K562 = test system: K562

Row | SMILES | GI50 (HCC 2998) | GI50 (TK-10) | GI50 (SF-539) | GI50 (MOLT-4) | GI50 (SF-268) | GI50 (KM12) | GI50 (CCRF-CEM) | GI50 (NCI-H23) | GI50 (RPMI-8226) | GI50 (HL-60) | GI50 (SR) | GI50 (HOP-62) | GI50 (UACC-62) | GI50 (OVCAR-8) | GI50 (Malme-3M) | GI50 (NCI-H226) | GI50 (K562)
1 | CCCCCCCCCCCCC(CC)CCCCC(=O)O (stereo not given) | > 100 µM (inactive) | > 100 µM (inactive) | > 44.6 µM (inactive) | 27 µM (inactive) | > 100 µM (inactive) | > 100 µM (inactive) | 22.6 µM (inactive) | > 78.7 µM (inactive) | > 56.4 µM (inactive) | > 63.1 µM (inactive) | > 53.2 µM (inactive) | > 100 µM (inactive) | > 100 µM (inactive) | > 100 µM (inactive) | > 100 µM (inactive) | > 100 µM (inactive) | 40.6 µM (inactive)
2 | COc1ccc(C(=C[N+](=O)[O-])c2ccc(OC)cc2)cc1 | 11.4 µM (inactive) | 25.4 µM (inactive) | 10.9 µM (inactive) | 3.17 µM (inactive) | 20 µM (inactive) | 4.5 µM (inactive) | 10.1 µM (inactive) | 12.7 µM (inactive) | 3.84 µM (inactive) | 5.19 µM (inactive) | 4.38 µM (inactive) | 13.3 µM (inactive) | 9.55 µM (inactive) | 13 µM (inactive) | 13.3 µM (inactive) | 24.3 µM (inactive) | 3.69 µM (inactive)
3 | O=C(/C=C\c1cccc2ccccc12)c1ccc(Br)cc1 | 17.5 µM (inactive) | 51.3 µM (inactive) | 22.3 µM (inactive) | 31 µM (inactive) | 23.7 µM (inactive) | 15.1 µM (inactive) | 20.9 µM (inactive) | 34 µM (inactive) | 14.8 µM (inactive) | 15 µM (inactive) |  | > 100 µM (inactive) | 15.2 µM (inactive) | 17.5 µM (inactive) | 31.3 µM (inactive) | 50.7 µM (inactive) | 18.1 µM (inactive)
4 | CCOC(=O)C1=C(Nc2ccccc2)SC/C1=N\NC(=O)Cc1ccccc1 | > 100 µM (inactive) | > 100 µM (inactive) | > 100 µM (inactive) | > 100 µM (inactive) | > 100 µM (inactive) | > 100 µM (inactive) | > 100 µM (inactive) | > 100 µM (inactive) |  | > 100 µM (inactive) | > 100 µM (inactive) | > 100 µM (inactive) | > 100 µM (inactive) | > 100 µM (inactive) | > 100 µM (inactive) | > 100 µM (inactive) | > 100 µM (inactive)
5 | COc1cc2c(cc1OC)C1(c3ccccc3)ON=C(c3ccccc3)N1CS2 (stereo not given) | > 100 µM (inactive) | > 100 µM (inactive) | > 100 µM (inactive) | 16.1 µM (inactive) | > 100 µM (inactive) | > 100 µM (inactive) | 39.3 µM (inactive) | > 100 µM (inactive) | 67.6 µM (inactive) | 16.1 µM (inactive) | 23.6 µM (inactive) | > 100 µM (inactive) | 45.8 µM (inactive) |  | > 100 µM (inactive) | > 100 µM (inactive) | 52.7 µM (inactive)
6 | CCOC(=O)[C@H]1Nc2ccc([N+](=O)[O-])cc2C2c3ccccc3CC21 (stereo not given in full) | 21.3 µM (inactive) | 27.4 µM (inactive) | 17.3 µM (inactive) | 5.12 µM (inactive) | 16.5 µM (inactive) | 29.9 µM (inactive) | 0.337 µM (active) | 15.3 µM (inactive) | 16.9 µM (inactive) |  | 9.93 µM (inactive) | 18.9 µM (inactive) | 12.2 µM (inactive) | 21.4 µM (inactive) | 19 µM (inactive) | 19.1 µM (inactive) | 3.89 µM (inactive)
7 | CN/C(=N\C#N)N(Cc1ccccc1)Cc1ccccc1 | > 100 µM (inactive) | > 100 µM (inactive) | > 100 µM (inactive) | > 100 µM (inactive) | > 100 µM (inactive) | > 100 µM (inactive) | > 100 µM (inactive) | > 100 µM (inactive) | > 100 µM (inactive) | > 100 µM (inactive) | > 100 µM (inactive) | > 100 µM (inactive) | > 100 µM (inactive) | > 100 µM (inactive) | > 100 µM (inactive) | > 100 µM (inactive) | 
8 | COc1ccc(/C=N/N=C(\N)NO)c(OC)c1C | 7.08 µM (inactive) |  | 19.2 µM (inactive) | 22.2 µM (inactive) | 15.4 µM (inactive) | 29.2 µM (inactive) | 29.9 µM (inactive) | 19.5 µM (inactive) | 23.7 µM (inactive) |  | 28.2 µM (inactive) | 7.19 µM (inactive) | 16.3 µM (inactive) | 20.2 µM (inactive) | 16.3 µM (inactive) | 15.2 µM (inactive) | 10.1 µM (inactive)
9 | CCCCCCCCCCCC(=O)OCC1OC(OC)C(NC(=O)N(CCCl)N=O)C(O)C1O (stereo not given) | 14.4 µM (inactive) | 25.7 µM (inactive) | 2.96 µM (inactive) | 1.69 µM (inactive) | 2.32 µM (inactive) | 17.3 µM (inactive) | 0.516 µM (active) | > 10 µM (inactive) | 7.5 µM (inactive) |  | 2.79 µM (inactive) | 18.7 µM (inactive) | 1.33 µM (inactive) | 19.3 µM (inactive) | 12.2 µM (inactive) | 23 µM (inactive) | 10.3 µM (inactive)
10 | COc1ccc(CN(O)C2C(CO)OC(n3cc(I)c(=O)[nH]c3=O)C2O)cc1 (stereo not given) | > 100 µM (inactive) | > 100 µM (inactive) | > 100 µM (inactive) | > 100 µM (inactive) | > 100 µM (inactive) | > 100 µM (inactive) | > 100 µM (inactive) | > 100 µM (inactive) | > 100 µM (inactive) | > 100 µM (inactive) | > 100 µM (inactive) | > 100 µM (inactive) | > 100 µM (inactive) | > 100 µM (inactive) | > 100 µM (inactive) |  | > 100 µM (inactive)
11 | O=C1CCN2CCC(=O)c3c2c(cc2ccccc32)N1 | > 100 µM (inactive) | > 100 µM (inactive) | > 100 µM (inactive) | > 100 µM (inactive) | > 100 µM (inactive) | > 100 µM (inactive) | > 100 µM (inactive) |  | > 100 µM (inactive) |  |  | > 100 µM (inactive) | > 100 µM (inactive) | > 100 µM (inactive) | > 100 µM (inactive) | > 100 µM (inactive) | > 100 µM (inactive)
12 | CCOC(=O)c1nc(-c2ccccc2)oc1OCC | > 100 µM (inactive) | > 100 µM (inactive) | > 100 µM (inactive) | 60.7 µM (inactive) | > 100 µM (inactive) | > 100 µM (inactive) | > 100 µM (inactive) | > 100 µM (inactive) | 92.7 µM (inactive) | 49.9 µM (inactive) |  | > 100 µM (inactive) | > 100 µM (inactive) | > 100 µM (inactive) |  | > 100 µM (inactive) | 74.1 µM (inactive)
